One may read the EC50 as the concentration at which the effect is half-maximal. By Emax is commonly meant the size of the effect at its maximum, as opposed to the concentration needed.

Among the data in US20240208992A1, “MACROCYCLES AS CFTR MODULATORS” (Idorsia Pharmaceuticals Ltd, priority 2021, published 2024) are EC50 and Emax values, retold here.

This assay deals with human F508del-CFTR (Homo sapiens, UniProt P13569, DEL508-508). The experiment in a line: F508del-CFTR cell surface expression (corrector activity), DiscoveRx ß-galactosidase complementation chemiluminescence assay in recombinant U2OS cell line.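 On all read-outs here: U2OS cells co-expressing ProLink-tagged F508del-CFTR and a membrane-anchored enzyme acceptor, where more surface CFTR restores β-galactosidase activity measured by chemiluminescence.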 The settings on record: for EC50: EC50, F508del-CFTR cell surface expression, U2OS cells, 16h compound incubation, geomean values; for Emax: U2OS, in relation to Emax of corrector lumacaftor (=100%), arithmetic mean values.
Chain of human F508del-CFTR (P13569 with tags, fused parts or gaps DEL508-508): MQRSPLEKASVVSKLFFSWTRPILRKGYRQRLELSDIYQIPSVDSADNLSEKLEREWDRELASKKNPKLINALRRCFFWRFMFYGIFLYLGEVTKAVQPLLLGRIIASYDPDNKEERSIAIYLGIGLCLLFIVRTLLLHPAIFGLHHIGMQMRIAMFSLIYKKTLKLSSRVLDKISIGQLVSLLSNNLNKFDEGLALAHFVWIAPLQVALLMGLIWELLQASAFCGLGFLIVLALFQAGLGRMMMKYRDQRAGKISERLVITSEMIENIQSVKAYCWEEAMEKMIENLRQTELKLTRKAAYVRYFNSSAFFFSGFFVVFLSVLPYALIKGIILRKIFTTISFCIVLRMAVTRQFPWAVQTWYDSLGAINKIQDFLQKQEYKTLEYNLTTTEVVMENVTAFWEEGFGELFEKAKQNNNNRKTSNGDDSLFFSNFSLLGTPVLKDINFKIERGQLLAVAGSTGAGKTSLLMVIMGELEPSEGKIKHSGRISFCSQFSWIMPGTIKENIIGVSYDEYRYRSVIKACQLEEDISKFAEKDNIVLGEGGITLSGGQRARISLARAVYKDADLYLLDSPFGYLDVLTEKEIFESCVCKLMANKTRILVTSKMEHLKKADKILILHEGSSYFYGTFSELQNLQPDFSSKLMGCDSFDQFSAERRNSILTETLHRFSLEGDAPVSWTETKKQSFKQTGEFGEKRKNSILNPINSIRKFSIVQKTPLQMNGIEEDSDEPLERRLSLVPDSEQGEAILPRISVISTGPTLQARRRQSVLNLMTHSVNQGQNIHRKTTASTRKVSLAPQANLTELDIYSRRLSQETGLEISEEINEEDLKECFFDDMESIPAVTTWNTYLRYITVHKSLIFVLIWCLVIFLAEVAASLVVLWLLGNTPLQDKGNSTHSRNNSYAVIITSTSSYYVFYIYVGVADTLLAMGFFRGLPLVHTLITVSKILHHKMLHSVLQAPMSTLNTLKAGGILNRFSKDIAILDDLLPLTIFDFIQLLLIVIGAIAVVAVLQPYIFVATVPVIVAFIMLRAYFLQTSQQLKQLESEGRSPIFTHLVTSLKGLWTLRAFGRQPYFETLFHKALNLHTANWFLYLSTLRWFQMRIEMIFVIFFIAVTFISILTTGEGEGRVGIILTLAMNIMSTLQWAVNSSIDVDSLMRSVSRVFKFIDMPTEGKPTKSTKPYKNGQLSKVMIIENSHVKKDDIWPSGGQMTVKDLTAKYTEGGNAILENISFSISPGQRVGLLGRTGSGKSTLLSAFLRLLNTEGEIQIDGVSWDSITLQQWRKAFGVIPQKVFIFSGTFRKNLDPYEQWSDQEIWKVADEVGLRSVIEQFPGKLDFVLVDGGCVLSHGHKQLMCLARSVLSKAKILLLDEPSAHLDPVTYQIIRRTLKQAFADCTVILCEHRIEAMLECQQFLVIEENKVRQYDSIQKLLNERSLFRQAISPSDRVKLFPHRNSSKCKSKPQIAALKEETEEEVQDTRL

With `Cc1cc(CCNC(=O)[C@@H]2CC(=O)N(C)[C@@H](CC(C)C)C(=O)N(C)C3(CC3)C(=O)N[C@H](Cc3ccccc3)COc3nc4ccccn4c3C(=O)N2)on1` [Example 448, (3′R,9′S,13′S)-3′-benzyl-9′-isobutyl-7′,10′-dimethyl-N-(2-(3-methylisoxazol-5-yl)ethyl)-5′,8′,11′,15′-tetraoxo-2′,3′,4′,5′,8′,9′,10′,11′,12′,13′,14′,15′-dodecahydro-7′H-spiro[cyclopropane-1,6′-pyrido[2′,11:2,3]imidazo[4,5-p][1]oxa[4,7,10,14]tetraazacycloheptadecine]-13′-carboxamide], the EC50 stood at 0.961 µM and the Emax was 109%.
With `COc1cccc(CCNC(=O)[C@@H]2CC(=O)N(C)[C@@H](CC(C)C)C(=O)N(C)CC(=O)N[C@H](Cc3ccccc3)COc3nc4ccccn4c3C(=O)N2)c1` [Example 449, (3R,9S,13S)-3-benzyl-9-isobutyl-N-(3-methoxyphenethyl)-7,10-dimethyl-5,8,11,15-tetraoxo-2,3,4,5,6,7,8,9,10,11,12,13,14,15-tetradecahydropyrido[2′,1′:2,3]imidazo[4,5-p][1]oxa[4,7,10,14]tetraazacycloheptadecine-13-carboxamide], the EC50 was 0.543 µM and the maximal effect (Emax) was 165%.
In the same order, the values of `COc1cccc(CCNC(=O)[C@@H]2CC(=O)N(C)[C@@H](CC(C)C)C(=O)N(C)CC(=O)N[C@H](Cc3ccccc3)COc3ccc4c(c3C(=O)N2)CCO4)c1` [Example 450, (3S,7S,13R)-13-benzyl-7-isobutyl-N-(3-methoxyphenethyl)-6,9-dimethyl-1,5,8,11-tetraoxo-1,2,3,4,5,6,7,8,9,10,11,12,13,14,19,20-hexadecahydrobenzofuro[4,5-p][1]oxa[4,7,10,14]tetraazacycloheptadecine-3-carboxamide] are 0.379 µM and 107%.
In the same order, the values of `COc1cccc(CCNC(=O)[C@@H]2CC(=O)N(C)[C@@H](CC(C)C)C(=O)N3CCN(CCCO)C[C@@H]3C(=O)N[C@H](Cc3ccccc3)COc3ccc4ccccc4c3C(=O)N2)c1` [Example 451, (4aR,7R,18S,22S)-7-benzyl-3-(3-hydroxypropyl)-22-isobutyl-N-(3-methoxyphenethyl)-21-methyl-5,16,20,23-tetraoxo-2,3,4,4a,5,6,7,8,16,17,18,19,20,21,22,23-hexadecahydro-1H-naphtho[1,2-p]pyrazino[2,1-f][1]oxa[4,7,10,14]tetraazacycloheptadecine-18-carboxamide] are 0.257 µM and 307%.
Regarding `Cc1cc(CCNC(=O)[C@@H]2CC(=O)N(C)[C@@H](CC(C)C)C(=O)N3CCN(CCCO)C[C@@H]3C(=O)N[C@H](Cc3ccccc3)COc3ccc4ccccc4c3C(=O)N2)on1` [Example 452, (4aR,7R,18S,22S)-7-benzyl-3-(3-hydroxypropyl)-22-isobutyl-21-methyl-N-(2-(3-methylisoxazol-5-yl)ethyl)-5,16,20,23-tetraoxo-2,3,4,4a,5,6,7,8,16,17,18,19,20,21,22,23-hexadecahydro-1H-naphtho[1,2-p]pyrazino[2,1-f][1]oxa[4,7,10,14]tetraazacycloheptadecine-18-carboxamide], the 50% effective concentration (EC50) came to 0.886 µM and the Emax was found to be 292%.
In the same order, the values of `CC(C)C[C@H]1C(=O)N(C)C2(CC2)C(=O)N[C@H](Cc2ccccc2)COc2cnc3ccccc3c2C(=O)N[C@H](C(=O)NCCc2cccc(-n3nccn3)c2)CC(=O)N1C` [Example 453, (3′S,7′S,13′R)-N-(3-(2H-1,2,3-triazol-2-yl)phenethyl)-13′-benzyl-7′-isobutyl-6′,9′-dimethyl-1′,5′,8′,11′-tetraoxo-2′,3′,4′,5′,6′,7′,8′,9′,11′,12′,13′,14′-dodecahydro-1′H-spiro[cyclopropane-1,10′-[1]oxa[4,7,10,14]tetraazacycloheptadecino[17,16-c]quinoline]-3′-carboxamide] are 0.417 µM and 251%.
In the same order, the values of `CC(C)C[C@H]1C(=O)N(C)C2(CC2)C(=O)N[C@H](Cc2ccccc2)COc2cnc3ccccc3c2C(=O)N[C@H](C(=O)NCCc2ccc(-n3nccn3)cc2)CC(=O)N1C` [Example 454, (3′S,7′S,13′R)-N-(4-(2H-1,2,3-triazol-2-yl)phenethyl)-13′-benzyl-7′-isobutyl-6′,9′-dimethyl-1′,5′,8′,11′-tetraoxo-2′,3′,4′,5′,6′,7′,8′,9′,11′,12′,13′,14′-dodecahydro-1′H-spiro[cyclopropane-1,10′-[1]oxa[4,7,10,14]tetraazacycloheptadecino[17,16-c]quinoline]-3′-carboxamide] are 0.234 µM and 236%.
In the same order, the values of `Cc1cc(CCNC(=O)[C@@H]2CC(=O)N(C)[C@@H](CC(C)C)C(=O)N3CCCC[C@@H]3C(=O)N[C@H](Cc3ccccc3)COc3ccc4c(c3C(=O)N2)OCC4)on1` [Example 455, (8S,12S,18aR,21R)-21-benzyl-12-isobutyl-11-methyl-N-(2-(3-methylisoxazol-5-yl)ethyl)-6,10,13,19-tetraoxo-3,4,6,7,8,9,10,11,12,13,16,17,18,18a,19,20,21,22-octadecahydro-15H-benzofuro[7,6-p]pyrido[2,1-f][1]oxa[4,7,10,14]tetraazacycloheptadecine-8-carboxamide] are 0.677 µM and 211%.
As for `COc1cccc(CCNC(=O)[C@@H]2CC(=O)N(C)[C@@H](CC(C)C)C(=O)N3CCCC[C@@H]3C(=O)N[C@H](Cc3ccccc3)COc3ccc4c(c3C(=O)N2)OCC4)c1` [Example 456, (8S,12S,18aR,21R)-21-benzyl-12-isobutyl-N-(3-methoxyphenethyl)-11-methyl-6,10,13,19-tetraoxo-3,4,6,7,8,9,10,11,12,13,16,17,18,18a,19,20,21,22-octadecahydro-15H-benzofuro[7,6-p]pyrido[2,1-f][1]oxa[4,7,10,14]tetraazacycloheptadecine-8-carboxamide], the EC50 was 0.25 µM and the Emax is 185%.
As to `COCCN1C(=O)[C@H](CC(C)C)N(C)C(=O)C[C@@H](C(=O)NCCc2cccc(OC)c2)NC(=O)c2c(ccc3ccccc23)OC[C@@H](Cc2ccccc2)NC(=O)C12CC2` [Example 457, (3′S,7′S,13′R)-13′-benzyl-7′-isobutyl-9′-(2-methoxyethyl)-N-(3-methoxyphenethyl)-6′-methyl-1′,5′,8′,11′-tetraoxo-2′,3′,4′,5′,6′,7′,8′,9′,11′,12′,13′,14′-dodecahydro-1′H-spiro[cyclopropane-1,10′-naphtho[1,2-p][1]oxa[4,7,10,14]tetraazacycloheptadecine]-3′-carboxamide], the EC50 is 0.326 µM and the Emax was found to be 144%.
For `Cc1cc(CCNC(=O)[C@@H]2CC(=O)N(C)[C@@H](CC(C)C)C(=O)N3CCN(C(=O)OCC(Cl)(Cl)Cl)C[C@@H]3C(=O)N[C@H](Cc3ccccc3)COc3cnc4ccccc4c3C(=O)N2)on1` [Example 458, 2,2,2-trichloroethyl (9S,13S,19aR,22R)-22-benzyl-13-isobutyl-12-methyl-9-((2-(3-methylisoxazol-5-yl)ethyl)carbamoyl)-7,11,14,20-tetraoxo-7,8,9,10,11,12,13,14,16,17,19,19a,20,21,22,23-hexadecahydro-18H-pyrazino[2′,1′:6,7][1]oxa[4,7,10,14]tetraazacycloheptadecino[17,16-c]quinoline-18-carboxylate] the same measures were 0.209 µM and 238%.
For `COc1cccc(CCNC(=O)[C@@H]2CC(=O)N(C)[C@@H](CC(C)C)C(=O)N3CCN(C)C[C@@H]3C(=O)N[C@H](Cc3ccccc3)COc3cnc4ccccc4c3C(=O)N2)c1` [Example 459, (9S,13S,19aR,22R)-22-benzyl-13-isobutyl-N-(3-methoxyphenethyl)-12,18-dimethyl-7,11,14,20-tetraoxo-7,8,9,10,11,12,13,14,17,18,19,19a,20,21,22,23-hexadecahydro-16H-pyrazino[2′,11:6,7][1]oxa[4,7,10,14]tetraazacycloheptadecino[17,16-c]quinoline-9-carboxamide], the EC50 was 0.726 µM and the Emax was found to be 390%.
In the same order, the values of `COc1cccc(CCNC(=O)[C@@H]2CC(=O)N(C)[C@@H](CC(C)C)C(=O)N(C)C3(CC3)C(=O)N[C@H](Cc3ccccc3)COc3ccc4ncccc4c3C(=O)N2)c1` [Example 460, (3′S,7′S,13′R)-13′-benzyl-7′-isobutyl-N-(3-methoxyphenethyl)-6′,9′-dimethyl-1′,5′,8′,11′-tetraoxo-2′,3′,4′,5′,6′,7′,8′,9′,11′,12′,13′,14′-dodecahydro-1′H-spiro[cyclopropane-1,10′-[1]oxa[4,7,10,14]tetraazacycloheptadecino[16,17-f]quinoline]-3′-carboxamide] are 0.31 µM and 398%.
For `CC(C)C[C@H]1C(=O)N2CCCC[C@@H]2C(=O)N[C@H](Cc2ccccc2)COc2cnc3ccccc3c2C(=O)N[C@H](C(=O)NCCc2cccc(-n3nccn3)c2)CC(=O)N1C` [Example 461, (9S,13S,19aR,22R)-N-(3-(2H-1,2,3-triazol-2-yl)phenethyl)-22-benzyl-13-isobutyl-12-methyl-7,11,14,20-tetraoxo-7,8,9,10,11,12,13,14,17,18,19,19a,20,21,22,23-hexadecahydro-16H-pyrido[2′,1′:6,7][1]oxa[4,7,10,14]tetraazacycloheptadecino[17,16-c]quinoline-9-carboxamide] the same measures were 0.444 µM and 262%.
In the same order, the values of `CC(C)C[C@H]1C(=O)N2CCCC[C@H]2C(=O)N[C@H](Cc2ccccc2)COc2cnc3ccccc3c2C(=O)N[C@H](C(=O)NCCc2cccc(-n3nccn3)c2)CC(=O)N1C` [Example 462, (9S,13S,19aS,22R)-N-(3-(2H-1,2,3-triazol-2-yl)phenethyl)-22-benzyl-13-isobutyl-12-methyl-7,11,14,20-tetraoxo-7,8,9,10,11,12,13,14,17,18,19,19a,20,21,22,23-hexadecahydro-16H-pyrido[2′,1′:6,7][1]oxa[4,7,10,14]tetraazacycloheptadecino[17,16-c]quinoline-9-carboxamide] are 0.345 µM and 130%.
